Measurements published in BigSolDB 2.1.

NC(=O)c1cnccn1
solubility (mole fraction)
Conditions | 278.15 K | 283.15 K | 288.15 K | 293.15 K | 298.15 K | 303.15 K | 308.15 K | 313.15 K | 318.15 K | 323.15 K
in acetone | 0.00249 | 0.00304 | 0.00357 | 0.00424 | 0.00495 | 0.00574 | 0.00674 | 0.00784 | 0.00897 | 0.00975
in acetonitrile | 0.00125 | 0.00162 | 0.00205 | 0.00248 | 0.00294 | 0.00351 | 0.0042 | 0.00497 | 0.0058 | 0.00633
in ethyl acetate | 0.0016 | 0.00219 | 0.0024 | 0.00312 | 0.0035 | 0.00416 | 0.00475 | 0.00581 | 0.00666 | 0.00775
in isopropanol | 0.000619 | 0.000973 | 0.00136 | 0.00181 | 0.00224 | 0.00279 | 0.00365 | 0.00466 | 0.00574 | 0.00692
in methanol | 0.00208 | 0.00265 | 0.00328 | 0.00384 | 0.0047 | 0.00563 | 0.0071 | 0.00828 | 0.01 | –
in n-butanol | 0.000772 | 0.00116 | 0.00148 | 0.00192 | 0.00237 | 0.00309 | 0.00396 | 0.00512 | 0.00623 | 0.00731
in n-propanol | 0.000775 | 0.00123 | 0.00145 | 0.00179 | 0.00245 | 0.00297 | 0.00394 | 0.00503 | 0.00616 | 0.00707
in sec-butanol | 0.00053 | 0.00081 | 0.00108 | 0.0015 | 0.00188 | 0.00252 | 0.00332 | 0.00434 | 0.00564 | 0.00696
in water | 0.00105 | 0.00131 | 0.00168 | 0.00194 | 0.0024 | 0.00284 | 0.00362 | 0.00421 | 0.00521 | 0.006
